Experimental data published in PMC5877387, “Nanoparticles engineered to bind cellular motors for efficient delivery” (Journal of Nanobiotechnology, 2018).

How the values were obtained:
[1] = Cytotoxicity of inhibitors, trypan blue exclusion; details: at working concentrations (Nocodazole 2.5 µM, Latrunculin A 0.1 µM)
Vero cells = assay: Inhibition assays of NP transport with cytoskeleton-depolymerizing drugs; type: cell-based; details: Nocodazole 2.5 µM, Latrunculin A 0.1 µM; 1.5 µM NPs, 37 °C

Row | SMILES | cytotoxicity (cell death) after drug incubation [1] [%] | effect of drug on Au@DBP distribution, movement and spread (Vero cells)
1 | C/C1=C/C(=O)O[C@@H]2C[C@@H](CC[C@H](C)/C=C\C=C\CC1)O[C@@](O)([C@@H]1CSC(=O)N1)C2 [Latrunculin A] | ≤ 10 | did not stop
2 | COC(=O)Nc1nc2ccc(C(=O)c3cccs3)cc2[nH]1 [Nocodazole] | ≤ 10 | reversibly stopped
